Where “and” joins values, the source holds several entries; their conditions need not be identical. Identical values can stand only once. Entries after “also recorded” stand apart in the source; their conditions may differ.

Data on twelve compounds can be found in US10351587B2, “Method of making and using 7α, 11β-dimethyl-17β-hydroxyestr-4-en-3-one 17-undecanoate” (The United States of America, as represented by the …, priority 2000, dated 2019).

Common to all, as to type: in vivo
Experiment [1] deals with castrate Sprague-Dawley rats. The experiment in a line: Duration of activity after a single subcutaneous injection (ventral prostate weight over weeks, AUC). As to conditions: for AUC of ventral prostate weight (FIG. 5) / Long-term androgenic activity (ventral prostate weight over time), in words / AUC of ventral prostate weight (FIG. 15): single subcutaneous injection; for AUC of ventral prostate weight (FIG. 5): n=5. As to the method: Immature (about 21-day-old) Sprague-Dawley rats were orchidectomized under anesthesia, and randomly assignee to groups of ten animals for each dose level of the active undergoing testing. Each active was administered by subcutaneous injection each day for seven days beginning on the date of the orchidectomy. The animals were sacrificed 24 hours after the last dose, and the ventral prostate and seminal vesicles were excised, cleaned of fat and connective tissue, blotted on moist filter paper and weighed to the nearest 0.1 mg. Regression analysis was performed by conventional methods using a PROPHET data management system. Ventral prostate weight was used as the endpoint because it is the sensitive organ to androgenic stimulation.
Except for testosterone enanthate, each active was formulated in two different carriers: (1) an aqueous suspension and (2) in sesame oil. Testosterone enanthate was formulated using the sesame oil carrier only, because it exists as a liquid at room temperature and could not therefore be formulated as an aqueous suspension.
The carrier used to provide the aqueous suspension was formulated as follows: 1 g benzyl alcohol, 0.5 g sodium carboxylethyl cellulose 50, 0.376 g disodium hydrogen phosphate dihydrate, 1.495 g sodium dihydrogen phosphate dihydrate, with water for injection (WFI) being added to bring volume of the carrier up to 100 ml.
Each formulation was prepared at a concentration of 0.6 mg/0.2 ml.
Immature (about 21-day-old) Sprague-Dawley rats were orchidectomized under anesthesia, and randomly assignee to groups of 40 or more. Animals received a single subcutaneous injection of 0.6 mg of each ester in 0.2 ml of an aqueous suspending carrier and/or oily carrier (10% ethanol/90% sesame oil or ethyl oleate) on the date of the orchidectomy. In cases where the ester was not solid at room temperature, 10% ethanol/sesame oil or ethyl oleate was used as the carrier. In this example, the carrier used to provide the aqueous suspension was formulated as follows: 1 g benzyl alcohol, 0.5 g sodium carboxylethyl cellulose 50, 0.376 g disodium hydrogen phosphate dihydrate, 1.495 g sodium dihydrogen phosphate dihydrate, with water for injection (WFI) being added to bring volume of the carrier up to 100 ml.
Five animals from each group were sacrificed at weekly or biweekly intervals, and the ventral prostate and seminal vesicles were excised, cleaned of fat and connective tissue, blotted on moist filter paper and weighed to the nearest 0.1 mg.
Ventral prostate weight was used as the endpoint because it is the sensitive organ to androgenic stimulation. Regression analysis was performed by conventional methods using the PROPHET data management system previously identified.
Immature (about 21-day-old) Sprague-Dawley rats were orchidectomized under anesthesia, and randomly assignee to groups of 40 or more. Animals received a single subcutaneous injection of 0.6 mg of the undecanoate in 0.2 ml of an aqueous suspending carrier and/or oily carrier (10% ethanol/90% sesame oil containing 5 mg/ml chlorobutanol as a preservative, or ethyloleate) on the date of the orchidectomy. The enanthate ester was formulated using the 10% ethanol/sesame oil or ethyloleate carrier as a first standard, with the 10% ethanol/sesame oil carrier used as a second standard.
In this example, the carrier used to provide the aqueous suspension was formulated as follows: 1 g benzyl alcohol, 0.5 g sodium carboxylethyl cellulose 50, 0.376 g disodium hydrogen phosphate dihydrate, 1.495 g sodium dihydrogen phosphate dihydrate, with water for injection (WFI) being added to bring volume of the carrier up to 100 ml.

Experiment [2] relates to castrate Sprague-Dawley rats. The experiment is described as follows: Hershberger test, oral administration for seven days (ventral prostate weight). On the procedure:
Immature (about 21-day-old) Sprague-Dawley rats were orchidectomized under anesthesia, and randomly assignee to groups of ten animals for each dose level of the active undergoing testing. Each active was dissolved in 10% ethanol/sesame oil and administered by gavage (oral) each day for seven days beginning on the date of the orchidectomy. The animals were sacrificed 24 hours after the last dose, and the ventral prostate and seminal vesicles were excised, cleaned of fat and connective tissue, blotted on moist filter paper and weighed to the nearest 0.1 mg. See, e.g., Hershberger, L. et al, Myotrophic Activity of 19-nortestosterone And Other Steroids Determined By Modified Levator And Muscle Method, Proc. Soc. Exptl. Biol. Med. 83 175-180 (1953). Regression analysis was performed by conventional methods using a PROPHET data management system. See, e.g., Bliss, C., The Statistics of Bioassay (Academic Press, New York, 1952); Hollister, C., Nucleic Acids Res. 16 1873-75 (1988). […]
Immature (about 21-day-old) Sprague-Dawley rats were orchidectomized under anesthesia, and randomly assignee to groups of ten animals for each dose level of the active undergoing testing. […] See, e.g., Hershberger, L. et al, Myotrophic Activity of 19-nortestosterone And Other Steroids Determined By Modified Levator And Muscle Method, Proc. Soc. […]

Experiment [3] has as its system castrate Sprague-Dawley rats. The experiment is described as follows: Hershberger test, subcutaneous administration for seven days (ventral prostate weight). Conditions: for Androgenic activity Potency Ratio, subcutaneous: subcutaneous daily for 7 days in 10% EtOH/sesame oil, testosterone subcutaneous standard = 1.0 (assigned), ventral prostate weight; for Androgenic Potency of Corresponding Alcohol: ventral prostate weight assay following subcutaneous administration, alcohol of G = 1.0 (assigned), value is for the free alcohol of the listed ester. As to the method: Immature (about 21-day-old) Sprague-Dawley rats were orchidectomized under anesthesia, and randomly assignee to groups of ten animals for each dose level of the active undergoing testing. Each active was dissolved in 10% ethanol/sesame oil and administered by gavage (oral) or subcutaneous injection each day for seven days beginning on the date of the orchidectomy. The animals were sacrificed 24 hours after the last dose, and the ventral prostate and seminal vesicles were excised, cleaned of fat and connective tissue, blotted on moist filter paper and weighed to the nearest 0.1 mg. Regression analysis was performed by conventional methods using a PROPHET data management system. Ventral prostate weight was used as the endpoint because it is the sensitive organ to androgenic stimulation.
Immature (about 21-day-old) Sprague-Dawley rats were orchidectomized under anesthesia, and randomly assignee to groups of ten animals for each dose level of the active undergoing testing. Each active was dissolved in 10% ethanol/sesame oil and administered by subcutaneous injection each day for seven days beginning on the date of the orchidectomy. The animals were sacrificed 24 hours after the last dose, and the ventral prostate and seminal vesicles were excised, cleaned of fat and connective tissue, blotted on moist filter paper and weighed to the nearest 0.1 mg. See, e.g., Hershberger, L. et al, Myotrophic Activity of 19-nortestosterone And Other Steroids Determined By Modified Levator And Muscle Method, Proc. Soc. Exptl. Biol. Med. 83 175-180 (1953). Regression analysis was performed by conventional methods using a PROPHET data management system. See, e.g., Bliss, C., The Statistics of Bioassay (Academic Press, New York, 1952); Hollister, C., Nucleic Acids Res. 16 1873-75 (1988). Ventral prostate weight was used as the endpoint because it is the sensitive organ to androgenic stimulation.

For `C[C@@H]1CC2=CC(=O)CC[C@@H]2[C@@H]2[C@@H]1[C@@H]1CC[C@H](O)[C@@]1(C)C[C@@H]2C` [CDB-1321D, 7α,11β-Dimethyl-17β-hydroxy-4-estren-3-one], the “AUC of ventral prostate weight (FIG. 5)” value in experiment [1] (0.6 mg, ASV (aqueous suspending vehicle)) came to 460; in experiment [1] (0.6 mg, S.O. (sesame oil)) it was 166.
With `CCCC[C@H]1CC[C@H](C(=O)O[C@H]2CC=C3[C@H]4[C@H](CC[C@@]32C)[C@H]2CCC(=O)C=C2C[C@H]4C)CC1` [CDB-4327A, 7α-Methyl-14-dehydro-19-nortestosterone-17β-bucyclate], the “Long-term androgenic activity (ventral prostate weight over time), in words” value in experiment [1] is “surprising stimulation of ventral prostate size over the entire 20-week observation period”.
In the case of `CCCCC1CCC(C(=O)O[C@H]2CC[C@H]3[C@H]4[C@H]([C@H](C)C[C@]23C)[C@H]2CCC(=O)C=C2C[C@H]4C)CC1` (stereo partly shown) [CDB-4386], in experiment [1], the “Long-term androgenic activity (ventral prostate weight over time), in words” value is “inactive; also recorded: relatively low activity”.
Regarding `CCCCCCCCCCC(=O)O[C@H]1CC[C@H]2[C@H]3[C@H]([C@@H](C)C[C@]12C)[C@H]1CCC(=O)C=C1C[C@H]3C` [CDB-4521A, 7α,11β-dimethyl-17β-hydroxyestr-4-en-3-one 17-undecanoate], the “Androgenic activity Potency Ratio, oral, aqueous suspending vehicle” value in experiment [2] (oral gavage daily for 7 days in aqueous suspending vehicle (ASV), methyltestosterone in same vehicle = 1.0 (assigned)) is 0.95. Also, the “Androgenic activity Potency Ratio, subcutaneous” value in experiment [3] was found to be 0.52. Besides, the “Long-term androgenic activity (ventral prostate weight over time), in words” value in experiment [1] is “most dramatic increase and maintenance of ventral prostate weight”. Besides, the “AUC of ventral prostate weight relative to testosterone enanthate in sesame oil” value in experiment [1] (single subcutaneous injection 0.6 mg, active in aqueous vehicle, 10 week period) is given as “about 3 times”. Besides, the “AUC of ventral prostate weight (FIG. 15)” value is reported as 620 mg-weeks in experiment [1] (0.6 mg, 10% EtOH/Sesame Oil, 10 week period) and 1817 mg-weeks in experiment [1] (0.6 mg, Aqueous Suspending Vehicle, 10 week period).
Turning to `CCCCCCCCCCC(=O)O[C@H]1CC[C@H]2[C@H]3[C@H]([C@@H](C)C[C@]12C)[C@H]1CCC(=O)C=C1C[C@H]3C` [7α,11β-dimethyl-17β-hydroxyestr-4-en-3-one 17-undecanoate], the “Androgenic activity Potency Ratio, oral” value in experiment [2] (oral gavage daily for 7 days in 10% EtOH/sesame oil, methyltestosterone oral standard = 1.0 (assigned), ventral prostate weight) is given as “about twice that of methyltestosterone”.
In the case of `C[C@]12CC[C@H]3[C@@H](CCC4=CC(=O)CC[C@@]43C)[C@@H]1CC[C@@H]2O` [CDB-111C, testosterone], in experiment [3], the “Androgenic activity Potency Ratio, subcutaneous” value is on record as 1.00.
In the case of `CCCC[C@H]1CC[C@H](C(=O)O[C@H]2CC[C@H]3[C@H]4[C@H](CC[C@]23C)[C@H]2CCC(=O)C=C2C[C@H]4C)CC1` [A, 7α-Methyl-19-nortestosterone-17β-bucyclate], the “Androgenic Potency of Corresponding Alcohol” value (“Androgenic Potency” below) in experiment [3] is reported as 8.1^3.
As to `CCCCCCC(=O)O[C@H]1CC[C@H]2[C@@H]3CCC4=CC(=O)CC[C@]4(C)[C@H]3CC[C@]12C` [CDB-112E, testosterone enanthate], the “AUC of ventral prostate weight (FIG. 15)” value in experiment [1] (0.6 mg, 10% EtOH/Sesame Oil, 10 week period, listed as CDB-112F) is 559 mg-weeks and 559.28 mg-weeks. Besides, in experiment [1] (0.6 mg, S.O. (sesame oil)), the “AUC of ventral prostate weight (FIG. 5)” value came out at 497.
Take `CCCC[C@H]1CC[C@H](C(=O)O[C@H]2CC=C3[C@@H]4[C@H](C)CC5=CC(=O)CC[C@]5(C)[C@H]4CC[C@@]32C)CC1` [C, 7α-Methyl-14-dehydro-testosterone-17β-bucyclate]: the “Androgenic Potency” value in experiment [3] is on record as 61.1.
For `CCCCC1CCC(C(=O)OC2CCCC3C4C(C)CC5=CC(=O)CCC5(C)C4CCC23C)CC1` [D, 7α-Methyl-D-homo-testosterone-17β-bucyclate], the “Androgenic Potency” value in experiment [3] is 36.4-61.7^3.
Take `CCCCC1CCC(C(=O)O[C@H]2CC[C@H]3[C@@H]4CCC5=CC(=O)CC[C@]5(C)[C@H]4CC[C@]23C)CC1` (stereo partly shown) [CDB-1781a, Testosterone bucyclate]: the “Androgenic Potency” value in experiment [3] is listed as 1.0 (assigned). Moreover, the “Long-term androgenic activity (ventral prostate weight over time), in words” value in experiment [1] is on record as “significantly less”. The “AUC of ventral prostate weight (FIG. 5)” value in experiment [1] (0.6 mg, S.O. (sesame oil)) is 186; in experiment [1] (1.0 mg, ASV (aqueous suspending vehicle)), 683.
As for `CCCC[C@H]1CC[C@H](C(=O)O[C@H]2CC[C@H]3[C@H]4[C@H](CC[C@]23C)[C@H]2CCC(=O)C[C@@H]2C[C@H]4C)CC1` [B, 7α-Methyl-5α-dihydro-19-nortestosterone-17β-bucyclate], the “Androgenic Potency” value in experiment [3] was determined as 1.2.
